Test results published in US8858952B2, “Methods and materials for generating T cells” (Mayo Foundation for Medical Education and Research, priority 2009, dated 2014).
Entries after “also recorded” stand apart in the source; their conditions may differ. Where no end group is shown, it is not given here. [ ]: non-standard residue; d: D form. Ava = NCCCCC(=O)O

Assays:
bone marrow-derived DC = assay: Cytokine and chemokine multiplex analysis of DC culture supernatant; format: cell-based; conditions: DC culture media 48 hours after pulsing, versus native FR74
Procedure: FIG. 14. […] Shown are the concentrations of cytokines within DC culture media 48 hours after pulsing with the indicated polypeptides. Each bar is the mean (±s.e.m.) of duplicates samples. A repeat experiment yielded similar results.
FIG. 15. […] Shown are the concentrations of chemokines within DC culture media 48 hours after pulsing with the indicated polypeptides. Each bar is the mean (±s.e.m.) of duplicate samples. A repeat experiment yielded similar results.
FIG. 24. Modified polypeptides induce different release of IL-6 and IL-12p70. Shown are the concentrations of IL-6 and IL-12p70 within DC culture media 48 hours after pulsing with the indicated polypeptides. Each bar is the mean (±s.e.m.) of duplicate samples. A repeat experiment yielded similar results. Values associate with each bar are the actual mean concentrations measured.
Another potential reason for the enhanced T cell activation is that epitope nesting results in enhancement of cytokines that facilitate the induction of T cell activation. […]
This hypothesis is tested using antibody neutralization. […] Cytokine levels in the sera are quantitated by analyzing 100 μL of each well on a Bio-Plex using Bio-Plex Manager software (ver.4.). […] Both the DC and the T cells can be assessed for expression of the receptors using flow cytometry. […]

ovarian tumor = assay: Vaccination of ovarian tumor-bearing mice with native or nested epitope; format: in vivo; conditions: spleens and lymph nodes, day 50; FIGS. 32, 33
Procedure: Each bar is the mean of three mice, each done in triplicate. P values, comparing FR74-specific responses, were calculated using Tukey-Kramer Multiple Comparisons test.
Each bar is the mean of 3 mice, each done in triplicate. P values, comparing FR74-specific responses or tumor weights, were calculated using Tukey-Kramer Multiple Comparisons test.
Mice were implanted with ovarian tumor and 10 days later were treated with PBS, native epitope FR74 (2150 μg/kg in 100 μL injected at the base of the tail), or nested epitope FR74.4 (5000 μg/kg in 100 μL injected at the base of the tail) over the course of a week. On day 50, the mice were sacrificed and spleen, lymph node, and tumor tissue was harvested. T cell responses and tumor weights were then estimated. The number of FR74-specific T cells in the spleens and lymph nodes was determined (FIG. 32). T cells were estimated using an IFN-γ ELIspot assay testing responses against native FR74 (black bars) or an irrelevant peptide (white bars). In addition, the proliferation of T cells, in response to native FR74 (black bars) or an irrelevant peptide (white bars), was measured in the spleens and lymph nodes (FIG. 33). T cell proliferation was estimated using a tritiated thymidine assay.
In addition, the weight of the greater omentum (a surrogate of total tumor burden) 50 days following last immunization was measured (FIG. 34C).

Substance: FR74.4: dual conjugated polypeptide: FR74 nested between Ii-key and DC3 (Ac-LRMK[Ava]KDISYLYRFNWNHCGRARRFYPSYHSTPQRP)
- cytokine release by DC (bone marrow-derived DC; FIG. 14): selectively induces expression of IL-1α, IL-6, IL-12p70, IL-13 and TNF-α; also recorded: enhanced the release of IL-1α, IL-6, and IL-12p70
- chemokine levels produced by DC (bone marrow-derived DC; FIG. 15): significantly higher levels of the T cell attracting chemokines, CCL7 (MCP-3), CCL1 (KC) CXCL10 (IP-10); also recorded: elevated levels of CCL7, CXCL1, and CXCL10
- immunogenicity as vaccine in tumor bearing mice (IFN-γ ELIspot and proliferation) (ovarian tumor): more immunogenic than native epitopes
